Source: patent US9969775B2, “CGRP antagonist peptides” (Ferring B.V., priority 2015, dated 2018)
Numbered stars: 1 amine (or outer) side, 2 acyl side, 3 side chain; on linkers, the order of the positions; unused ones are H or OH. Bridge positions count the residues as written; N and C are the ends. Square brackets hold non-standard residues; d marks the D form. Peptide text beside a SMILES is read from it. * marks the point of attachment. Phe(3-CH2NH2) = O=C([C@H](Cc1cccc(CN[*:3])c1)N[*:1])[*:2]; Phe(3-CONH2) = NC(=O)c1cccc(C[C@H](N)C(=O)O)c1; Phe(2-CONH2) = NC(=O)c1ccccc1C[C@H](N)C(=O)O; Orn(iPr) = CC(C)NCCC[C@H](N)C(=O)O; Benzoyl(4-F) = O=C(c1ccc(F)cc1)*; Oxazole2carbonyl = O=C(c1ncco1)*; 3Pal = N[C@@H](Cc1cccnc1)C(=O)O; ΔPro = O=C(O)[C@@H]1C=CCN1; Dap = NC[C@H](N)C(=O)O; X6 = O=C(c1ccncn1)*

What was measured:
[1] = biological target: T1, hCGRP receptor (CALCRL:RAMP1) (Homo sapiens, UniProt O60894+Q16602); assay: CGRP receptor antagonist activity measured by cAMP assay (HTRF); type: cell-based; conditions: agonist human α-CGRP; for Emax: % MPE: percent of the maximal possible effect, read-out: hCGRP-R Efficacy Antag (%) Ave; for IC50: GeneBLAzer CALCRL:RAMP1-CRE-bla Freestyle 293F cells, 30 minutes, read-out: hCGRP-R IC50 Ave
T1 construct: host or cells: GeneBLAzer CALCRL:RAMP1-CRE-bla Freestyle 293F

[2] = biological target: T2, hAM2 receptor (CALCRL:RAMP3) (Homo sapiens, UniProt O60896+Q16602); assay: AM2 receptor antagonist activity measured by cAMP assay (HTRF); type: cell-based; conditions: for Emax: % MPE: percent of the maximal possible effect, read-out: hAM2-R Efficacy Antag (%) Ave; for Emax / IC50: agonist human adrenomedullin; for IC50: GeneBLAzer CALCRL:RAMP3-CRE-bla Freestyle 293F cells, read-out: hAM2-R IC50 Ave; for selectivity ratio CGRP/AM2: selectivity ratio for hCGRP over hAM2, calculated from the IC50 values
T2 construct: expressed in transfected cells; host or cells: GeneBLAzer CALCRL:RAMP3-CRE-bla Freestyle 293F
T2 sequence (Q16602 23-461): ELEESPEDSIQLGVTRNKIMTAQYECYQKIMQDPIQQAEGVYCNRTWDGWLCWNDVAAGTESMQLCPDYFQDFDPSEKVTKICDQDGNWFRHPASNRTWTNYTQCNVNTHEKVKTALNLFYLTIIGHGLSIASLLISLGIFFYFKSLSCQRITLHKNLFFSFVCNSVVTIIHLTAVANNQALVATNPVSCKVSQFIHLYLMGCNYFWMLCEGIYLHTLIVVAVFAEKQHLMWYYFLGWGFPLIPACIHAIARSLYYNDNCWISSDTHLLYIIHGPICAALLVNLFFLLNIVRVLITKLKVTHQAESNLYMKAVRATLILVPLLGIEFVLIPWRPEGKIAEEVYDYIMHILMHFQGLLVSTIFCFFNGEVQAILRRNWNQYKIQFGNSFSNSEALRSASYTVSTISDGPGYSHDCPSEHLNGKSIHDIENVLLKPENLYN
T2 sequence (O60896 24-148): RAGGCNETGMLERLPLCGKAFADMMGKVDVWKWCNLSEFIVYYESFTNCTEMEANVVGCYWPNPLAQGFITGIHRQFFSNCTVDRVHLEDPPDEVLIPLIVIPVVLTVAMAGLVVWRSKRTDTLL
Protocol: Antagonist activity for the adrenomedullin receptor AM2 was determined using the method described in Example 6 above, with the following modifications. Instead of GeneBLAzer® CALCRL:RAMP1-CRE-bla Freestyle™ 293F cells, GeneBLAzer® CALCRL:RAMP3-CRE-bla Freestyle™ 293F cells were used to test activity at hAM2 receptors. The agonist was human adrenomedullin, instead of α-CGRP.
In Table 5, the selectivity ratio for hCGRP over hAM2 is calculated as hCGRP-R IC50/hAM2-R IC50.

T1 sequence (Q16602 23-461): as the sequence (Q16602 23-461) above
T1 sequence (O60894 27-148): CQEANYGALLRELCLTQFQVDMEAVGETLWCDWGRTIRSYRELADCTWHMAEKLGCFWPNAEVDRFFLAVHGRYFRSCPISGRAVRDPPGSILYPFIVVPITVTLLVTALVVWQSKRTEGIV

| SMILES | Emax [1] [%] | IC50 [1] [nM] | Emax [2] [%] | IC50 [2] [nM] | selectivity ratio CGRP/AM2 [2] |
| --- | --- | --- | --- | --- | --- |
| CC(C)NCCC[C@@H]1NC(=O)[C@@H](NC(=O)[C@H](Cc2ccccc2C(N)=O)NC(=O)[C@H](NC(=O)c2ncco2)C(C)C)CSSC[C@@H](C(=O)N[C@@H](Cc2cccnc2)C(N)=O)NC(=O)[C@H](Cc2cccnc2)NC(=O)[C@@H]2C=CCN2C(=O)CNC(=O)[C@H](C(C)C)NC(=O)[C@H](CC(=O)O)NC1=O [Compound 58, Oxazole-2-carbonyl-D-Val-Phe(2-Cbm)-c(Cys-Orn(iPr)-Asp-Val-Gly-Dhp-3Pal-Cys)-3Pal-NH2] (Oxazole2carbonyl-[dV][Phe(2-CONH2)]C[Orn(iPr)]DVG[ΔPro][3Pal]C[3Pal]-NH2; disulfide 3-10) | 100 | 0.18 | 99 | 476 | 2588 |
| CC(C)[C@@H]1NC(=O)[C@H](CC(=O)O)NC(=O)[C@H](CCCNC(=N)N)NC(=O)[C@@H](NC(=O)[C@H](Cc2ccccc2C(N)=O)NC(=O)[C@H](NC(=O)c2ccncn2)C(C)C)CSSC[C@@H](C(=O)N[C@@H](Cc2cccnc2)C(N)=O)NC(=O)[C@H](Cc2cccc(CN)c2)NC(=O)[C@@H]2C=CCN2C(=O)CNC1=O [Compound 31, Pyrimidine-4-carbonyl-D-Val-Phe(2-Cbm)-c(Cys-Arg-Asp-Val-Gly-Dhp-Phe(3-CH2NH2)-Cys)-3Pal-NH2] (X6-[dV][Phe(2-CONH2)]CRDVG[ΔPro][Phe(3-CH2NH2)]C[3Pal]-NH2; disulfide 3-10) | 100 | 0.12 | 100 | 46 | 390 |
| CC(C)[C@@H]1NC(=O)[C@H](CC(=O)O)NC(=O)[C@H](CCCNC(=N)N)NC(=O)[C@@H](NC(=O)[C@H](Cc2ccc(O)cc2)NC(=O)[C@H](NC(=O)c2ccncn2)C(C)C)CSSC[C@@H](C(=O)N[C@@H](Cc2cccnc2)C(N)=O)NC(=O)[C@H](Cc2ccccc2)NC(=O)[C@@H]2CCCN2C(=O)CNC1=O [Compound 16] (X6-[dV]YCRDVGPFC[3Pal]-NH2; disulfide 3-10) | 100 | 0.07 | 101 | 6.8 | 93 |
| CC(C)[C@@H]1NC(=O)[C@H](CC(=O)O)NC(=O)[C@H](CCCNC(=N)N)NC(=O)[C@@H](NC(=O)[C@H](Cc2ccc(O)cc2)NC(=O)[C@H](NC(=O)c2ccc(F)cc2)C(C)C)CSSC[C@@H](C(=O)N[C@@H](Cc2cccnc2)C(N)=O)NC(=O)[C@H](Cc2ccccc2)NC(=O)[C@@H]2CCCN2C(=O)CNC1=O [Compound 1] ({Benzoyl(4-F)}-[dV]YCRDVGPFC[3Pal]-NH2; disulfide 3-10) | 100 | 0.14 | 101 | 52 | 362 |
| CC(C)NCCC[C@@H]1NC(=O)[C@@H](NC(=O)[C@H](Cc2ccc(O)cc2)NC(=O)[C@H](NC(=O)c2ncco2)C(C)C)CSSC[C@@H](C(=O)N[C@@H](Cc2cccnc2)C(N)=O)NC(=O)[C@H](Cc2cccc(C(N)=O)c2)NC(=O)[C@@H]2C=CCN2C(=O)CNC(=O)[C@H](C(C)C)NC(=O)[C@H](CC(=O)O)NC1=O [Compound 67, Oxazole-2-carbonyl-D-Val-Tyr-c(Cys-Orn(iPr)-Asp-Val-Gly-Dhp-Phe(3-Cbm)-Cys)-3Pal-NH2] (Oxazole2carbonyl-[dV]YC[Orn(iPr)]DVG[ΔPro][Phe(3-CONH2)]C[3Pal]-NH2; disulfide 3-10) | 101 | 0.09 | 99 | 103 | 1094 |
| CC(C)[C@@H]1NC(=O)[C@H](CC(=O)O)NC(=O)[C@H](CN)NC(=O)[C@@H](NC(=O)[C@H](Cc2ccc(O)cc2)NC(=O)[C@H](NC(=O)c2ccc(F)cc2)C(C)C)CSSC[C@@H](C(=O)N[C@@H](Cc2cccnc2)C(N)=O)NC(=O)[C@H](Cc2cccc(C(N)=O)c2)NC(=O)[C@@H]2CCCN2C(=O)CNC1=O [Compound 6, Bz(4-F)-D-Val-Tyr-c(Cys-Dpr-Asp-Val-Gly-Pro-Phe(3-Cbm)-Cys)-3Pal-NH2] ({Benzoyl(4-F)}-[dV]YC[Dap]DVGP[Phe(3-CONH2)]C[3Pal]-NH2; disulfide 3-10) | 100 | 0.17 | 113 | 101 | 612 |
| CC(C)NCCC[C@@H]1NC(=O)[C@@H](NC(=O)[C@H](Cc2ccccc2C(N)=O)NC(=O)[C@H](NC(=O)c2ncco2)C(C)C)CSSC[C@@H](C(=O)N[C@@H](Cc2cccnc2)C(N)=O)NC(=O)[C@H](Cc2cccc(C(N)=O)c2)NC(=O)[C@@H]2C=CCN2C(=O)CNC(=O)[C@H](C(C)C)NC(=O)[C@H](CC(=O)O)NC1=O [Compound 65, Oxazole-2-carbonyl-D-Val-Phe(2-Cbm)-c(Cys-Orn(iPr)-Asp-Val-Gly-Dhp-Phe(3-Cbm)-Cys)-3Pal-NH2] (Oxazole2carbonyl-[dV][Phe(2-CONH2)]C[Orn(iPr)]DVG[ΔPro][Phe(3-CONH2)]C[3Pal]-NH2; disulfide 3-10) | 101 | 0.06 | 100 | 318 | 5492 |
